The values below come from ChEMBL document CHEMBL1909046, “DrugMatrix in vitro pharmacology data”.

Sequence of C-C chemokine receptor type 5 (P51681 whole entry): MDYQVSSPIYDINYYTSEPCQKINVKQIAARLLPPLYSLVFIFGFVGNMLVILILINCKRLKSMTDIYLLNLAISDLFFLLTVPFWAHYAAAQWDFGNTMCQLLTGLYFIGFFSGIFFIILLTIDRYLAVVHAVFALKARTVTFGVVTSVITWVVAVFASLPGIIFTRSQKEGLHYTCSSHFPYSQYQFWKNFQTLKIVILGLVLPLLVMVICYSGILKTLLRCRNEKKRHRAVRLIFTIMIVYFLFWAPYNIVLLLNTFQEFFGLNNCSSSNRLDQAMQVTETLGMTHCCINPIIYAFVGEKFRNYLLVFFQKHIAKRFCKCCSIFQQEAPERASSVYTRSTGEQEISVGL

The first data set concerns the target C-C chemokine receptor type 5 (Homo sapiens, UniProt P51681). It is filed as cell membranes, Membrane. Conditions: hek293. Note: in other assays of this panel Not Active means under 50% inhibition at 10 µM.
Broadly, the IC50 is the midpoint of a concentration-inhibition curve. On to `CC(=O)[C@@]1(O)CC[C@H]2[C@@H]3C[C@H](C)C4=CC(=O)CC[C@]4(C)[C@H]3CC[C@@]21C`, for which the IC50 result is on record as “Not Active”.
On the same count and under the same terms, the result for `CC(C)N1CCN(c2ccc(OCC3COC(Cn4cncn4)(c4ccc(Cl)cc4Cl)O3)cc2)CC1` (stereo not given) [TERCONAZOLE] reads “Not Active”; that for `COc1nc(C)nc(Cl)c1NC1=NCCN1` [MOXONIDINE], “Not Active”; that for `C[C@@H]1CN(c2c(F)c(N)c3c(=O)c(C(=O)O)cn(C4CC4)c3c2F)C[C@H](C)N1` [SPARFLOXACIN], “Not Active”.
Still for that read-out and setting: the result for `N[C@@H](Cc1ccc(O)c(O)c1)C(=O)O` [LEVODOPA] reads “Not Active”.

Test system in the next data set: not listed separately
As to the kind of experiment: DRUGMATRIX: Calcium Channel Type L, Phenylalkylamine radioligand binding (ligand: [3H] (-)-Desmethoxyverapamil (D-888)). Type of data set: cell membranes, Rattus norvegicus, Wistar, Brain, Membrane. Conditions: Not Active = under 50% inhibition at 10 µM.
A word on the Ki: it is a measure of affinity in units of concentration, obtained from inhibition or displacement. Take `CC(=O)[C@@]1(O)CC[C@H]2[C@@H]3C[C@H](C)C4=CC(=O)CC[C@]4(C)[C@H]3CC[C@@]21C`: the IC50 entry is reported as “Not Active” and the Ki entry is on record as “Not Active”.
Take `COc1nc(C)nc(Cl)c1NC1=NCCN1` [MOXONIDINE]: the IC50 result was “Not Active” and the Ki entry is recorded as “Not Active”.
With `C[C@@H]1CN(c2c(F)c(N)c3c(=O)c(C(=O)O)cn(C4CC4)c3c2F)C[C@H](C)N1` [SPARFLOXACIN], the IC50 result is given as “Not Active” and the Ki entry was “Not Active”.
On to `N[C@@H](Cc1ccc(O)c(O)c1)C(=O)O` [LEVODOPA], for which the IC50 entry was “Not Active” and the Ki result is “Not Active”.

Staying with this data set, now noted: Not Active = under 50% inhibition at 10 µM; read-out: IC50.
Consider `CC(C)N1CCN(c2ccc(OCC3COC(Cn4cncn4)(c4ccc(Cl)cc4Cl)O3)cc2)CC1` (stereo not given) [TERCONAZOLE], for which the IC50 amounted to 3.46 µM.

Still in this data set, the particulars now being: Not Active = under 50% inhibition at 10 µM; read-out: Ki.
`CC(C)N1CCN(c2ccc(OCC3COC(Cn4cncn4)(c4ccc(Cl)cc4Cl)O3)cc2)CC1` (stereo not given) [TERCONAZOLE]: the Ki stood at 3.36 µM.

Test system in the next data set: not listed separately
The experiment in a line: DRUGMATRIX: Potassium Channel [KATP] radioligand binding (ligand: [3H] Glyburide). It is filed as cell membranes, Membrane. Conditions: hit-t15; Not Active = under 50% inhibition at 10 µM.
Consider `CC(=O)[C@@]1(O)CC[C@H]2[C@@H]3C[C@H](C)C4=CC(=O)CC[C@]4(C)[C@H]3CC[C@@]21C`, for which the IC50 entry is given as “Not Active” and the Ki result was “Not Active”.
Take `CC(C)N1CCN(c2ccc(OCC3COC(Cn4cncn4)(c4ccc(Cl)cc4Cl)O3)cc2)CC1` (stereo not given) [TERCONAZOLE]: the IC50 result is recorded as “Not Active” and the Ki entry is on record as “Not Active”.
On to `COc1nc(C)nc(Cl)c1NC1=NCCN1` [MOXONIDINE], for which the IC50 entry is recorded as “Not Active” and the Ki result is “Not Active”.
With `C[C@@H]1CN(c2c(F)c(N)c3c(=O)c(C(=O)O)cn(C4CC4)c3c2F)C[C@H](C)N1` [SPARFLOXACIN], the IC50 result is reported as “Not Active” and the Ki result is listed as “Not Active”.
Consider `N[C@@H](Cc1ccc(O)c(O)c1)C(=O)O` [LEVODOPA], for which the IC50 result is listed as “Not Active” and the Ki entry is “Not Active”.

The target in another data set is T1, Caspase-1 (Homo sapiens, UniProt P29466).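 Note: Caspase-1 enzyme inhibition assay with a peptide substrate; in other assays of this panel Not Active means under 50% inhibition at 10 µM.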
T1 sequence (P29466 whole entry): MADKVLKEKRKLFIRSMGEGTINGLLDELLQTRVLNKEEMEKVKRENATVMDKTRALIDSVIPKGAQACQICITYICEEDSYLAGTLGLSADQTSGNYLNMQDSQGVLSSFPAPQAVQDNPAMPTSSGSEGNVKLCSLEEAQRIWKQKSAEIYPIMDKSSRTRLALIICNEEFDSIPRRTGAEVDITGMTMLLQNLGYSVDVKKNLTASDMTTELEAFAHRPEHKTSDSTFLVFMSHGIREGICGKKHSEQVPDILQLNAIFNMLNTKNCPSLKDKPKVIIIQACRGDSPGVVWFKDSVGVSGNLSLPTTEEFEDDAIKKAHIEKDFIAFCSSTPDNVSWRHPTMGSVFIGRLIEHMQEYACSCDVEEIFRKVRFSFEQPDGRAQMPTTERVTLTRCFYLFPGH
Also on record: species or system Escherichia coli.
Conditions: not given
As to `CC(=O)[C@@]1(O)CC[C@H]2[C@@H]3C[C@H](C)C4=CC(=O)CC[C@]4(C)[C@H]3CC[C@@]21C`, the IC50 entry is listed as “Not Active”.
Still for that read-out and setting: with `CC(C)N1CCN(c2ccc(OCC3COC(Cn4cncn4)(c4ccc(Cl)cc4Cl)O3)cc2)CC1` (stereo not given) [TERCONAZOLE] the entry was “Not Active”; with `COc1nc(C)nc(Cl)c1NC1=NCCN1` [MOXONIDINE], “Not Active”.
On the same count and under the same terms, the result for `C[C@@H]1CN(c2c(F)c(N)c3c(=O)c(C(=O)O)cn(C4CC4)c3c2F)C[C@H](C)N1` [SPARFLOXACIN] reads “Not Active”; that for `N[C@@H](Cc1ccc(O)c(O)c1)C(=O)O` [LEVODOPA], “Not Active”.

Another data set deals with Cytochrome P450 3A4 (Homo sapiens, UniProt P08684). Conditions: bti-tn-5b1-4.
Sequence of Cytochrome P450 3A4 (P08684 whole entry): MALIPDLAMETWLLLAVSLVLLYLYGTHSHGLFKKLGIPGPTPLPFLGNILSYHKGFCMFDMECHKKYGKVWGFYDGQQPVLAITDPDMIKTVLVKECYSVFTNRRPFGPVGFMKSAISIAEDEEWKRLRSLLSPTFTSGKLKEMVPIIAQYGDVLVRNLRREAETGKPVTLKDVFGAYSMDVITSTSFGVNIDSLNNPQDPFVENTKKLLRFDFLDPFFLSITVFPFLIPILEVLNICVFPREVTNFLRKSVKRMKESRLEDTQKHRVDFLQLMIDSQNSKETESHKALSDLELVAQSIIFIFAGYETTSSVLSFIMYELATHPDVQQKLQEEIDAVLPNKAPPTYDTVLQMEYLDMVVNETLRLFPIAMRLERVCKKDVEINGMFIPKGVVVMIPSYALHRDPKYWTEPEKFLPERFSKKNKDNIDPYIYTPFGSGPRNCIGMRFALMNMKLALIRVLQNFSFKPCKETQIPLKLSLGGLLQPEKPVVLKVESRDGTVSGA
As for `CC(=O)[C@@]1(O)CC[C@H]2[C@@H]3C[C@H](C)C4=CC(=O)CC[C@]4(C)[C@H]3CC[C@@]21C`, the IC50 entry is listed as “Not Active” and the Ki entry is on record as “Not Active”.
For the molecule `CC(C)N1CCN(c2ccc(OCC3COC(Cn4cncn4)(c4ccc(Cl)cc4Cl)O3)cc2)CC1` (stereo not given) [TERCONAZOLE], the IC50 entry was “Not Active” and the Ki result is recorded as “Not Active”.
As for `COc1nc(C)nc(Cl)c1NC1=NCCN1` [MOXONIDINE], the IC50 result is “Not Active” and the inhibitory constant (Ki) result is on record as “Not Active”.
For `C[C@@H]1CN(c2c(F)c(N)c3c(=O)c(C(=O)O)cn(C4CC4)c3c2F)C[C@H](C)N1` [SPARFLOXACIN], the IC50 result is recorded as “Not Active” and the Ki entry is “Not Active”.
For the molecule `N[C@@H](Cc1ccc(O)c(O)c1)C(=O)O` [LEVODOPA], the IC50 result is on record as “Not Active” and the Ki entry is listed as “Not Active”.

For a further data set, the target named is Protein kinase C alpha type (Homo sapiens, UniProt P17252). Type of data set: cell-based. Conditions: sf9.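 Note: inhibition of PKCalpha kinase activity measured in an enzyme assay with histone as the phosphorylation substrate; in other assays of this panel Not Active means under 50% inhibition at 10 µM.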
Turning to `CC(=O)[C@@]1(O)CC[C@H]2[C@@H]3C[C@H](C)C4=CC(=O)CC[C@]4(C)[C@H]3CC[C@@]21C`, the IC50 result is “Not Active”.
On the same count and under the same terms, the result for `CC(C)N1CCN(c2ccc(OCC3COC(Cn4cncn4)(c4ccc(Cl)cc4Cl)O3)cc2)CC1` (stereo not given) [TERCONAZOLE] reads “Not Active”; that for `COc1nc(C)nc(Cl)c1NC1=NCCN1` [MOXONIDINE], “Not Active”.
`C[C@@H]1CN(c2c(F)c(N)c3c(=O)c(C(=O)O)cn(C4CC4)c3c2F)C[C@H](C)N1` [SPARFLOXACIN]: the IC50 entry is “Not Active”.
`N[C@@H](Cc1ccc(O)c(O)c1)C(=O)O` [LEVODOPA]: the IC50 result is “Not Active”.

A further data set deals with T2, Neuropeptide Y receptor type 2 (Homo sapiens, UniProt P49146).
T2 sequence (P49146 whole entry): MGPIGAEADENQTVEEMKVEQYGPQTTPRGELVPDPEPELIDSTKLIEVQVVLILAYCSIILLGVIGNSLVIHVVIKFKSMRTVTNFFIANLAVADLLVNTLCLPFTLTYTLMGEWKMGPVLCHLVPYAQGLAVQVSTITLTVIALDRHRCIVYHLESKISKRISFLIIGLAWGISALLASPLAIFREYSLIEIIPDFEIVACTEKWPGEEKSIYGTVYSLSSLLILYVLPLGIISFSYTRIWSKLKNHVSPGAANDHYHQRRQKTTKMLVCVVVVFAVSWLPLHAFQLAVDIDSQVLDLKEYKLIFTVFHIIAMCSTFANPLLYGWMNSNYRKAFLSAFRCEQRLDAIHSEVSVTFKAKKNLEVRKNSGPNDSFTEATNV
It is filed as cell membranes, Membrane. Conditions: kan-ts.
On to `CC(=O)[C@@]1(O)CC[C@H]2[C@@H]3C[C@H](C)C4=CC(=O)CC[C@]4(C)[C@H]3CC[C@@]21C`, for which the IC50 entry is listed as “Not Active”.
Still for that read-out and setting: the result for `CC(C)N1CCN(c2ccc(OCC3COC(Cn4cncn4)(c4ccc(Cl)cc4Cl)O3)cc2)CC1` (stereo not given) [TERCONAZOLE] reads “Not Active”.
Same read-out and setting: with `COc1nc(C)nc(Cl)c1NC1=NCCN1` [MOXONIDINE] the entry was “Not Active”; with `C[C@@H]1CN(c2c(F)c(N)c3c(=O)c(C(=O)O)cn(C4CC4)c3c2F)C[C@H](C)N1` [SPARFLOXACIN], “Not Active”.
Consider `N[C@@H](Cc1ccc(O)c(O)c1)C(=O)O` [LEVODOPA], for which the IC50 result is “Not Active”.

Test system in another data set: not listed separately
As to the kind of experiment: DRUGMATRIX: Phosphodiesterase PDE3 enzyme inhibition (substrate: [3H]cAMP + cAMP). Type of data set: tissue-based, Homo sapiens. Conditions: platelet; Not Active = under 50% inhibition at 10 µM.
Consider `CC(=O)[C@@]1(O)CC[C@H]2[C@@H]3C[C@H](C)C4=CC(=O)CC[C@]4(C)[C@H]3CC[C@@]21C`, for which the IC50 result is “Not Active” and the Ki result was “Not Active”.
Consider `CC(C)N1CCN(c2ccc(OCC3COC(Cn4cncn4)(c4ccc(Cl)cc4Cl)O3)cc2)CC1` (stereo not given) [TERCONAZOLE], for which the IC50 entry is on record as “Not Active” and the Ki entry was “Not Active”.
In the case of `COc1nc(C)nc(Cl)c1NC1=NCCN1` [MOXONIDINE], the IC50 result is “Not Active” and the Ki result is “Not Active”.
Take `C[C@@H]1CN(c2c(F)c(N)c3c(=O)c(C(=O)O)cn(C4CC4)c3c2F)C[C@H](C)N1` [SPARFLOXACIN]: the IC50 result is on record as “Not Active” and the Ki entry is on record as “Not Active”.
Take `N[C@@H](Cc1ccc(O)c(O)c1)C(=O)O` [LEVODOPA]: the IC50 result is “Not Active” and the Ki result is on record as “Not Active”.
